The structures appear in SMILES notation.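 Growth conditions: 96-well plates. Treatment: test compound, 48 hours, 5 concentrations. Analysis: linear interpolation between bracketing concentrations; unreached endpoints set to highest concentration. Here, GI50 denotes the concentration required for 50% inhibition of growth.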 Calls of active or inactive are those of the source. Rule as the data show it: active = GI50 up to about 1.1 µM and inactive = higher.

Among the test systems are IGROV-1; HL-60; DMS-273; M19-MEL; SK-MEL-2; OVCAR-4; SR; TK-10; SK-MEL-28; ACHN; SW-620; DMS-114; DLD-1; Malme-3M; 786-0.
Holding throughout (assay): NCI-60 cell line screen, 48 h

For the compound `Cc1cc(O)nc(NN2C(Cl)C(=O)C2c2cccc(Cl)c2)n1` (stereo unspecified), the GI50 with IGROV-1 is 14 µM (inactive); with HL-60, 16 µM (inactive); with DMS-273 it was 17.1 µM (inactive); in the assay on M19-MEL, 33.9 µM (inactive); in the assay on SK-MEL-2, 16.7 µM (inactive); with OVCAR-4 it was 28.2 µM (inactive). Besides, the GI50 was 16 µM (inactive) in the assay on SR; 36.1 µM (inactive) in the assay on TK-10; 22.4 µM (inactive) in the assay with SK-MEL-28; 30 µM (inactive) with ACHN; 38 µM (inactive) with SW-620; 22.2 µM (inactive) with DMS-114.
For the compound `COc1cc2c(cc1O)N=C[C@@H]1CC[C@@H](O)N1C2=O.COc1cc2c(cc1O)N=C[C@@H]1CC[C@H](O)N1C2=O`, the GI50 is 1.83 µM (inactive) in the assay on IGROV-1; 0.897 µM (active) in the assay on HL-60; 5.48 µM (inactive) in the assay on DMS-273; 1.2 µM (inactive) in the assay on M19-MEL; 0.433 µM (active) with SK-MEL-2; 3.55 µM (inactive) in the assay with OVCAR-4. The GI50 is 1 µM (active) with DLD-1; 0.977 µM (active) in the assay on SK-MEL-28; 0.597 µM (active) in the assay on Malme-3M; 0.652 µM (active) in the assay with SW-620; 0.522 µM (active) with DMS-114.
On to `C=C1C(=O)O[C@@H]2[C@H](O)[C@@H](C)[C@@H]3C=CC(=O)[C@@]3(C)[C@@H](OC(=O)/C(C)=C/C)[C@H]12`, for which the GI50 in the assay on IGROV-1 is 0.459 µM (active); in the assay on HL-60, 0.355 µM (active); with DMS-273, 0.451 µM (active); in the assay with M19-MEL, 0.363 µM (active); with SK-MEL-2, 0.557 µM (active); in the assay with OVCAR-4 it was 1.35 µM (inactive). Further, the GI50 with DLD-1 is 0.728 µM (active); in the assay on SK-MEL-28 it was 0.344 µM (active); in the assay on Malme-3M it was 0.914 µM (active); in the assay with SW-620, 0.483 µM (active); in the assay on DMS-114 it was 0.498 µM (active).
In the case of `Nc1nc(Cl)nc2c1ncn2C1CC(O)C(CO)O1` (stereo unspecified), the GI50 is 81.8 µM (inactive) with IGROV-1; 0.0601 µM (active) with HL-60; 3.89 µM (inactive) in the assay on DMS-273; > 30.3 µM (inactive) in the assay with M19-MEL; > 100 µM (inactive) with SK-MEL-2; > 100 µM (inactive) in the assay with OVCAR-4. The GI50 is > 100 µM (inactive) in the assay on DLD-1; 43.3 µM (inactive) in the assay with SK-MEL-28; > 100 µM (inactive) in the assay with Malme-3M; 23 µM (inactive) in the assay with SW-620; 0.228 µM (active) in the assay on DMS-114.
`C/C(CC(=O)Nc1ccccc1)=N\NC(N)=S`: the GI50 with IGROV-1, with HL-60, in the assay with DMS-273, in the assay with M19-MEL, with SK-MEL-2 and in the assay on 786-0 was > 100 µM (inactive) each time. The GI50 with TK-10, in the assay with DLD-1, with SK-MEL-28, with Malme-3M, with SW-620 and with DMS-114 was > 100 µM (inactive) each time.
Turning to `CC(C)(C)c1ccc2c(c1)OP1(Oc3c(Cl)cc(Cl)c4cccnc34)(O2)Oc2ccc(C(C)(C)C)cc2O1`, the GI50 with IGROV-1 is 8.55 µM (inactive); with HL-60 it was 2.65 µM (inactive); in the assay on DMS-273 it was 5.04 µM (inactive); in the assay with M19-MEL it was 3.12 µM (inactive); in the assay on SK-MEL-2, 10.2 µM (inactive); in the assay on OVCAR-4, 10.3 µM (inactive). Further, the GI50 in the assay with DLD-1 is 5.2 µM (inactive); in the assay on SK-MEL-28 it was 11.3 µM (inactive); in the assay on Malme-3M, 10.8 µM (inactive); in the assay with SW-620 it was 6.43 µM (inactive); in the assay on DMS-114 it was 2.62 µM (inactive).
Consider `COC(=O)C(Cc1ccc2c(c1)OCO2)(NC(=O)c1ccccc1)P(=O)(OC)OC` (stereo unspecified), for which the GI50 with IGROV-1 was > 100 µM (inactive); with HL-60 it was > 100 µM (inactive); in the assay with DMS-273, > 100 µM (inactive); in the assay with M19-MEL it was > 100 µM (inactive); with SK-MEL-2, 63.5 µM (inactive); in the assay with OVCAR-4, > 100 µM (inactive). Moreover, the GI50 in the assay with SR, in the assay on TK-10, in the assay on DLD-1, with SK-MEL-28, in the assay with ACHN and in the assay with SW-620 was > 100 µM (inactive) each time. The GI50 in the assay on DMS-114 was > 100 µM (inactive).
